Assay results: patent US7157250B2, “Glutamic acid receptor and utilization thereof” (Ajinomoto Co., Inc., priority 2004, dated 2007)

Experiments:
[1] = tested on: abdominal cavity branch of vagus nerve; assay: Afferent activity of the abdominal cavity branch of vagus nerve after intraduodenal administration; format: in vivo, rat; conditions: 150 mM administered in the duodenum; urethane-anesthetized Wistar rats starved for 18 hours
Method: After starved for 18 hours, rats (Wistar strain, male, 8 to 10 week age: Japan Charles River) were laparotomized under anesthesis with urethane (1 g/kg, i.p.) and about 5 mm of the abdominal cavity branch of vagus nerve was peeled off under stereoscopic microscope. After the cutting of vagus nerve fasciculus, the vagus nerve fasciculus was placed on a small operation stage (8×6 mm) and fat and connective tissue surrounding the vagus nerve fasciculus were carefully peeled off. The terminal fiber on the organ side was placed on a platinum-made bipolar electrode and insulated from the surrounding tissue with liquid paraffin/vaseline (1:1) mixed solution. […]
The neural activity potential was amplified 10,000 folds by a micro potential amplifier (DAM-80 manufactured by WPI) and subjected to A/D conversion (Powerlab 4sp, manufactured by ADI Instruments) after noise was decreased by a Bessel filter (4-pole, […]). […] Simultaneously, while monitoring the amplified signals by an oscilloscope, a noise component is separated from a neural signal component by a window discriminator (DSE-435, manufactured by DiaMedical Corporation), integrated for 5 seconds by a Spike Counter (DSE-335P, manufactured by Nihon Kohden Corporation) and recorded by a chart recorder (WT-465G, manufactured by Nihon Kohden Corporation). […]

[2] = target: T1, mGluR4 variant (Rattus norvegicus, UniProt P31423); assay: Measurement of function of mGluR4 variant gene by cAMP measurement in variant expressing CHO-K1 cells; format: cell-based; conditions: 1 mM; for amount of cAMP: in presence of IBMX 100 μM and forskolin 10 μM, n=3
T1 construct: A full-length cDNA of a novel mGluR4 variant was amplified again by a RT-PCR method; V5-His (only in the cloning vector's name); expressed in transfected cells
T1 sequence (P31423 with tags, fused parts or gaps): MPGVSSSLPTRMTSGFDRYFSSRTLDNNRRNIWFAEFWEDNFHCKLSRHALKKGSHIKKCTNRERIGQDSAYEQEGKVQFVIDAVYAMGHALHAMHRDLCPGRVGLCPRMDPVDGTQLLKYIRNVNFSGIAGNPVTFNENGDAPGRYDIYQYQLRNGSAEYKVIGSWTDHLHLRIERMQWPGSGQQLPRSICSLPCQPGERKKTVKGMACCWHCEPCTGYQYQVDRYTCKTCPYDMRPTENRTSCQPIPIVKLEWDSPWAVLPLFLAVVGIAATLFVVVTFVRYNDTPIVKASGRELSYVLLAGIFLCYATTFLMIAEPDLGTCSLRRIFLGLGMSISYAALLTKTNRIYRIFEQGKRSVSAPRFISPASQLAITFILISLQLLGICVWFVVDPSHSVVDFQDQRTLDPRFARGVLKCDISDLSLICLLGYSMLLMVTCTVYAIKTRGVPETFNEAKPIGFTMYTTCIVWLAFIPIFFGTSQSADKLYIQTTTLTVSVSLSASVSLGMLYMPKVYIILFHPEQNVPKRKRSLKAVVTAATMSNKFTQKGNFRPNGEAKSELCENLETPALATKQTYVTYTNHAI
Method: The prepared vector (pcDNA3.1E) was introduced in CHO-K1 cell (Dainippon Pharmaceutical Co., Ltd.) by using polyFect reagent (Qiagen). After 48 hours, neomycin (600 μg/ml) was added to a culture medium (Modified Eagle Medium (αMEM) containing 10% fetal bovine serum, 100 U/ml penicillin; Nacalai Tesque) and cultivation was continued for 2 to 3 weeks to perform screening of gene-introduced cells.
The variant expressing cells obtained as described above were dispensed to 2.5×10^5 cells/well on a plate (24-well) and cultivated for 20 hours and then used for the measurement of the function of cAMP. Each plate was washed well with Dulbeco's phosphate buffer and incubated for 20 minutes. Thereafter, stimulation was performed with each drug for 10 minutes at 37° C. After the stimulation, the cells were at once treated with ice-cooled 2.5% perchloric acid (PCA) for 30 minutes, neutralized with KOH, and centrifuged to obtain a supernatant (12,000 rpm×10 min, 4° C.). The cAMP content of the supernatant was determined according to a conventional enzyme immunoassay (ELISA) by using a cAMP assay kit (Amersham).

N[C@@H](CCC(=O)[O-])C(=O)[O-].[Na+].[Na+] [MSG, sodium L-glutamate]
afferent activity of the abdominal cavity branch of vagus nerve [1]: increased

N[C@@H](CCC(=O)O)C(=O)O [glutamic acid]
amount of cAMP [2]: 1,235 fmole
decrease of the amount of cAMP accumulated in the mGluR4 variant expressing cell ([2]; versus sodium chloride (1 mM) added group, IBMX 100 μM and forskolin 10 μM present): about 19%

[Cl-].[Na+] [sodium chloride]
amount of cAMP [2]: 1,519 fmole
